Assay results as given in ChEMBL document CHEMBL1201862, “PubChem BioAssay data set” (2004).
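Compound exposure: 48 hours, 5 concentrations, 96-well plates. GI50 marks 50% less growth.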 Calls of active or inactive are those of the source. No stated cut-off is given here; in the data, active = GI50 up to about 1.1 µM and inactive = higher.

Key:
Assay in all cases: growth of human tumour cells (NCI), 48 h
[1] = tested on: HOP-62
[2] = tested on: DU-145
[3] = tested on: Hs-578T
[4] = tested on: NCI-H522
[5] = tested on: U-251
[6] = tested on: SF-268
[7] = tested on: A549
[8] = tested on: 786-0
[9] = tested on: SNB-75
[10] = tested on: RXF 393
[11] = tested on: EKVX
[12] = tested on: HT-29
[13] = tested on: KM12
[14] = tested on: SK-MEL-2
[15] = tested on: CAKI-1
[16] = tested on: SR
[17] = tested on: CCRF-CEM
[18] = tested on: NCI-H226
[19] = tested on: HCC 2998
[20] = tested on: DLD-1

CCOC(=O)C(NCc1cccc(C(F)(F)F)c1)(NC(=O)CC)C(F)(F)F (stereo not drawn)
GI50 [1]: > 100 µM (inactive)
GI50 [2]: > 100 µM (inactive)
GI50 [3]: > 100 µM (inactive)
GI50 [4]: > 100 µM (inactive)
GI50 [5]: > 100 µM (inactive)
GI50 [6]: > 100 µM (inactive)
GI50 [7]: 44.2 µM (inactive)
GI50 [8]: > 100 µM (inactive)
GI50 [9]: 63.5 µM (inactive)
GI50 [10]: 5.52 µM (inactive)
GI50 [11]: 68.5 µM (inactive)
GI50 [12]: > 100 µM (inactive)
GI50 [13]: > 100 µM (inactive)
GI50 [14]: > 100 µM (inactive)
GI50 [15]: > 100 µM (inactive)
GI50 [16]: > 100 µM (inactive)
GI50 [17]: > 100 µM (inactive)
GI50 [18]: > 100 µM (inactive)
GI50 [19]: > 100 µM (inactive)

C=CC[C@H]1[C@@H](O[Si](C)(C)C(C)(C)C)[C@H](n2ccc(=O)[nH]c2=O)O[C@@H]1CO[Si](C)(C)C(C)(C)C
GI50 [1]: 1.76 µM (inactive)
GI50 [2]: 2.09 µM (inactive)
GI50 [3]: 3.01 µM (inactive)
GI50 [4]: 1.76 µM (inactive)
GI50 [5]: 2.09 µM (inactive)
GI50 [6]: 2.99 µM (inactive)
GI50 [7]: 1.85 µM (inactive)
GI50 [8]: 1.56 µM (inactive)
GI50 [9]: 1.34 µM (inactive)
GI50 [10]: 1.56 µM (inactive)
GI50 [11]: 1.67 µM (inactive)
GI50 [12]: 1.59 µM (inactive)
GI50 [13]: 1.65 µM (inactive)
GI50 [14]: 2.62 µM (inactive)
GI50 [15]: 2.23 µM (inactive)
GI50 [16]: 2.44 µM (inactive)
GI50 [17]: 2.52 µM (inactive)
GI50 [18]: 4.11 µM (inactive)
GI50 [19]: 1.93 µM (inactive)

O=C(OCC1OC(n2nc(Cn3nnc(-c4cccnc4)n3)n(-c3cccc4ccccc34)c2=S)C(OC(=O)c2ccccc2)C1OC(=O)c1ccccc1)c1ccccc1 (stereo not drawn)
GI50 [1]: > 100 µM (inactive)
GI50 [2]: > 100 µM (inactive)
GI50 [3]: > 100 µM (inactive)
GI50 [4]: > 100 µM (inactive)
GI50 [5]: > 100 µM (inactive)
GI50 [6]: > 100 µM (inactive)
GI50 [7]: > 100 µM (inactive)
GI50 [8]: > 100 µM (inactive)
GI50 [9]: 2.55 µM (inactive)
GI50 [10]: > 100 µM (inactive)
GI50 [11]: > 100 µM (inactive)
GI50 [12]: > 100 µM (inactive)
GI50 [13]: > 100 µM (inactive)
GI50 [14]: > 100 µM (inactive)
GI50 [15]: > 100 µM (inactive)
GI50 [16]: > 100 µM (inactive)
GI50 [17]: > 100 µM (inactive)
GI50 [18]: > 100 µM (inactive)
GI50 [19]: > 100 µM (inactive)

CCOc1ccc(/N=N/c2ccc3cc(/C(C)=N/NC(=O)/C(C#N)=C\c4ccc(N(CCC#N)CCC#N)cc4)c(=O)oc3c2)cc1
GI50 [1]: > 10 µM (inactive)
GI50 [2]: > 10 µM (inactive)
GI50 [3]: > 10 µM (inactive)
GI50 [4]: > 10 µM (inactive)
GI50 [5]: > 10 µM (inactive)
GI50 [6]: > 10 µM (inactive)
GI50 [7]: > 10 µM (inactive)
GI50 [8]: > 10 µM (inactive)
GI50 [9]: 1.86 µM (inactive)
GI50 [10]: > 10 µM (inactive)
GI50 [11]: > 10 µM (inactive)
GI50 [12]: > 10 µM (inactive)
GI50 [13]: > 10 µM (inactive)
GI50 [14]: > 10 µM (inactive)
GI50 [15]: > 10 µM (inactive)
GI50 [16]: > 10 µM (inactive)
GI50 [17]: > 10 µM (inactive)
GI50 [18]: > 10 µM (inactive)
GI50 [19]: > 10 µM (inactive)

COc1cc(C2C(C(=O)O)=C(C)Oc3cc4c(cc32)OCO4)cc(OC)c1OC (stereo not drawn)
GI50 [20]: 29 µM (inactive)
GI50 [5]: 36.6 µM (inactive)
GI50 [7]: 45 µM (inactive)
GI50 [8]: 37.2 µM (inactive)
GI50 [9]: 14.6 µM (inactive)
GI50 [10]: 11.6 µM (inactive)
GI50 [11]: 58.5 µM (inactive)
GI50 [12]: 31.6 µM (inactive)
GI50 [15]: 9.04 µM (inactive)
GI50 [17]: 29.9 µM (inactive)

N=C1/C(=C/c2ccccc2)C(=O)N=C2SC=NN12
GI50 [1]: > 100 µM (inactive)
GI50 [2]: > 100 µM (inactive)
GI50 [3]: > 100 µM (inactive)
GI50 [4]: > 100 µM (inactive)
GI50 [5]: > 100 µM (inactive)
GI50 [6]: > 100 µM (inactive)
GI50 [7]: > 100 µM (inactive)
GI50 [8]: > 100 µM (inactive)
GI50 [9]: > 100 µM (inactive)
GI50 [10]: > 100 µM (inactive)
GI50 [11]: > 100 µM (inactive)
GI50 [12]: > 100 µM (inactive)
GI50 [13]: > 100 µM (inactive)
GI50 [14]: > 100 µM (inactive)
GI50 [15]: > 100 µM (inactive)
GI50 [16]: > 100 µM (inactive)
GI50 [17]: > 100 µM (inactive)
GI50 [18]: > 100 µM (inactive)
GI50 [19]: > 100 µM (inactive)

O=C(c1ccc2ccccc2c1)N(Cc1cccnc1)C(=S)N(Cc1cccnc1)C(=O)c1ccc2ccccc2c1
GI50 [1]: 23.2 µM (inactive)
GI50 [2]: 27 µM (inactive)
GI50 [3]: 49.9 µM (inactive)
GI50 [4]: 37.4 µM (inactive)
GI50 [5]: 19 µM (inactive)
GI50 [6]: 29.2 µM (inactive)
GI50 [7]: 39.3 µM (inactive)
GI50 [8]: 25.2 µM (inactive)
GI50 [9]: 24.9 µM (inactive)
GI50 [10]: 19.3 µM (inactive)
GI50 [11]: 22.8 µM (inactive)
GI50 [12]: 30 µM (inactive)
GI50 [13]: 22 µM (inactive)
GI50 [14]: 25.6 µM (inactive)
GI50 [15]: 22.2 µM (inactive)
GI50 [16]: 45.2 µM (inactive)
GI50 [17]: 60.7 µM (inactive)
GI50 [18]: 61.2 µM (inactive)
GI50 [19]: 16.5 µM (inactive)

Cc1ccc2c(O)cc(-c3cccc4ccccc34)nc2n1
GI50 [1]: 1.88 µM (inactive)
GI50 [2]: 0.0392 µM (active)
GI50 [3]: 0.043 µM (active)
GI50 [4]: < 0.0187 µM (active)
GI50 [5]: 0.0166 µM (active)
GI50 [6]: 0.762 µM (active)
GI50 [7]: 0.032 µM (active)
GI50 [8]: 0.0349 µM (active)
GI50 [9]: 0.0116 µM (active)
GI50 [10]: 0.497 µM (active)
GI50 [11]: 0.0338 µM (active)
GI50 [12]: < 0.0116 µM (active)
GI50 [13]: 0.0241 µM (active)
GI50 [14]: 0.0182 µM (active)
GI50 [15]: 0.353 µM (active)
GI50 [16]: < 0.01 µM (active)
GI50 [17]: 0.0251 µM (active)
GI50 [18]: 0.0398 µM (active)
GI50 [19]: 0.0294 µM (active)
